Article PMC9743128, “Phenotype-based screening rediscovered benzopyran-embedded microtubule inhibitors as anti-neuroinflammatory agents by modulating the tubulin–p65 interaction” (Experimental & Molecular Medicine, 2022)

Columns and labels:
[1] = test system: p65 nuclear translocation in J774A.1 and RAW264.7 cells; assay: p65 nuclear translocation by immunofluorescence staining; format: cell-based, murine; conditions: 10 μM for 1 h, then LPS; LPS alone 80%, basal 40%
Method: To monitor p65 translocation, J774A.1 cells were treated with compounds for 1 h, followed by LPS (100 ng/ml) treatment for 30 min. The cells were fixed with 4% paraformaldehyde (Sigma; #158127) in PBS (w/v) for 30 min at room temperature. After washing with 1× PBS (Welgene; ML008-02) three times, the fixed cells were permeabilized with PBS containing 0.1% Triton X-100 for 10 min. The cells were washed with 1× PBS three times and then blocked with 4% bovine serum albumin (MP Biomedicals; #0216006980) in PBS (w/v) for 1 h. The cells were incubated with mouse anti-p65 antibody (Santa Cruz; sc-8008, 1:200 diluted in 1% BSA–PBS) at 4 °C overnight and washed with PBS three times. FITC-labeled goat anti-mouse IgG antibody (Abcam; ab6785, 1:200 diluted in 1% BSA–PBS) was added to the sample and incubated for 1 h at room temperature. The remaining antibodies were finally washed three times with PBS. Nuclei were stained with Hoechst 33342 (Thermo; #62249). The cellular p65 proteins were imaged by fluorescence microscopy (GE Healthcare; Delta Vision) and quantified by the line profiling method.
During activation of the NF-κB signaling pathway, IκB is phosphorylated and degraded by proteasomes. The released p65 from IκB is translocated to the nucleus, inducing the transcription of target genes for inflammatory responses. Therefore, we monitored the translocation of p65 upon SB26019 treatment in J774A.1 and RAW264.7 murine macrophage cells stained with fluorescently labeled antibodies. […]

[2] = test system: LPS-mediated NO release in BV-2 microglial cells; assay: Griess assay: cellular NO release after LPS treatment; format: cell-based, murine
Method: Cellular secretion of nitric oxide (NO) was quantified with the Griess assay. BV-2 cells were seeded on a clear flat bottom TC-treated 96-well plate (Corning; #3598) and sealed with breathable sealing tape (Axygen; BF-400-S). After 18 h, BV-2 cells were treated with compounds in the absence or presence of 100 ng/mL LPS (Sigma; L4391). After 24 h, 50 μL of the cell culture media was mixed with the same volume of Griess reagent {0.1% naphthylethylenediamine dihydrochloride (Sigma; #222488) and 1% sulfanilamide (Sigma; S9251) in 4% phosphoric acid (Daejung; #6532-4405)}. Absorbance at 550 nm was measured using a microplate reader (BioTek; Synergy). Sodium nitrite (Alfa Aesar; A18668) was used for standard curve generation.
Microglia are tissue-resident macrophages involved in CNS immunosurveillance[3],[39]. Microglial activation induces proinflammatory cytokine tumor necrosis factor α (TNF-α) expression, resulting in neural toxicity[5],[6]. Therefore, the inhibition of microglial activation is critical for regulating neuroinflammation. To discover anti-neuroinflammatory NCEs, we monitored the cellular release of nitric oxide (NO) in response to lipopolysaccharide (LPS) treatment as a mimic of pathogenic activation of innate immune systems upon compound treatment in BV-2 cells using the Griess assay.

[3] = Pharmacokinetic (PK) study after IP injection; conditions: C57BL/6, mouse, in vivo, I.P., 5 mg/kg
[4] = test system: IκB in J774A.1 cells; assay: Western blot of IκB; format: cell-based; conditions: murine macrophage cells; inhibited by MG132 pretreatment
Method: The proteome was analyzed by SDS‒PAGE and transferred to PVDF membranes (Bio-Rad; BR162-0177). The membranes were blocked with 2% BSA in Tris-buffered saline containing 0.1% Tween-20 (TBST) for 1 h. To detect the desired proteins, the membranes were incubated overnight at 4 °C with the primary antibodies—1:1000 dilution of α-tubulin (CST; #3873), β-tubulin (CST; #2146), IκB (CST; #4814), caspase-1 (CST; #24232), cleaved caspase-1 (CST; #89332), IL-1β (CST; #31202), cleaved IL-1β (CST; #63124), acetylated α-tubulin (CST; #5335), p65 (Abcam; ab16502), FLAG (Abcam; ab49763); and 1:2,000 dilution of GAPDH (CST; #2118), β-actin (CST; #4970), and LMNB1 (Abcam; ab16048). After washing with TBST, the resulting membranes were exposed to HRP-conjugated secondary antibody—1:5000 dilution of anti-rabbit (CST; #7074) and anti-mouse (CST; #7076)—for 1 h at room temperature. After washing with TBST, the membranes were incubated with an enhanced chemiluminescence (ECL) prime kit (Cytiva; RPN2232). Chemiluminescent signals from the desired proteins were detected using ChemiDoc. […]
To understand the inhibitory mechanism of p65 nuclear translocation by SB26019, the expression levels of p65, IκB, and tubulin monomers were monitored upon SB26019 treatment in murine macrophage cells. […] To test this hypothesis, we monitored protein‒protein interactions among p65, IκB, and tubulin with immunoprecipitation. […]

- IC50 ([2]; Mus musculus, BV-2 cells, 100 ng/mL LPS, 24 h): 1.13 µM
- AUC(0-inf) [3]: 1790 ± 310 ng·h/mL
- AUC(0-t) [3]: 1770 ± 300 ng·h/mL
- Cmax [3]: 1200 ± 260 ng/mL
- Tmax [3]: 0.17 h
- half-life [3]: 3.57 ± 0.62 h
Compound: COc1ccc2c(c1O)OC(C)(C)C=C2c1cccc2c1oc1ccccc12 [Compound 8]
- p65 nuclear translocation in the presence of LPS [1]: < 60%
- inhibition at 10 µM ([2]; Mus musculus, 10 μM, BV-2 cells, LPS, read-out: % NO inh. at 10 μM): 102%
- Anti-neuroinflammatory activity in compensated Griess assay with Taxol ([2]; SB26019 5 μM, with or without tubulin stabilizer Taxol): attenuated in the presence of Taxol in a dose-dependent manner
- IκB degradation [4]: induced IκB degradation in a time- and dose-dependent manner
